In article PMC6389703, “Identification of Biologically Active Ganoderma lucidum Compounds and Synthesis of Improved Derivatives That Confer Anti-cancer Activities in vitro” (Frontiers in Pharmacology, 2019):

Tests used:
[1] = test system: MDA-MB-231 cells; assay: ROS measurement (CellROX green), MDA-MB-231; assay type: cell-based, human; details: EP 20 μM, 1 h
Experimental: SUM-149 or MDA-MB-231 were plated in 96-well plates at a density of 2 × 10^4 and 1 × 10^4 cells/well, respectively, in black 96-well clear bottom tissue culture plates and incubated for 24 h at 37°C. The mRuby-Mito-7 plasmid was obtained from Addgene (#55874 from Michael Davidson). A stable clone of MCF-7 was generated by using Fugene 6 (Roche) to transfect cells (2 × 10^5) with plasmid (2.0 μg) under neomycin selection. A stable cell line was selected by using G418 (300 μg/mL) for 2 weeks, sorted by flow cytometry, and maintained under G418 thereafter. Transfected MCF-7 cells were plated at a density of 2 × 10^4 cells/well in black 96-well clear bottom tissue culture plates and incubated overnight at 37°C. To test for ROS formation and remove background, cells were replenished with fresh PBS with 2% FBS and treated with the desired compounds for 1 h at 37°C. DMSO (0.5%) was used as a negative control, while Menadione (Mena, at 10 μM) or t-Butyl hydroperoxide (TBHP) at 100 μM final concentration were used as a positive control. To evaluate the compounds’ effects on ROS formation inhibition, the free radical scavenger N-acetyl cysteine (NAC) was used. […] Fluorescence intensity was measured in a Clariostar® plate reader (BMG LABTECH, Cary, NC, United States) at 535 nm.

[2] = test system: MCF10A cells; assay: cells; assay type: cell-based
Experimental: Cell viability assays (MTT or PI staining assays) in SUM-149, SUM-190, MDA-MB-231, and MCF10A cells were performed as we previously described ([Suarez-Arroyo et al., 2016]).
For the CTG assay, 3 or 4 replicate assays were conducted for each experimental condition, and a minimum of 3 independent experiments were conducted for cellular assays. The mean luminescence of each experimental treatment group was normalized as a percentage of the mean intensity of untreated controls. EC50 values (μM) were calculated by Pipeline Pilot Software (Accelrys, Enterprise Platform, San Diego, CA, United States). EC50 values (μM) from the viability assay were calculated from dose response curve-fitting via non-linear regression by using GraphPad Prism (Version 7.0, San Diego, CA, United States). For cell viability, colony formation, cell-cycle progression, cell death, and western blot assays, the analyses were performed via one-way or two-way ANOVA with post-testing for each condition (concentration, cell cycle stage, apoptotic event, cell line) by using GraphPad Prism.

[3] = Incubation of EP with NAC, monitored by NMR and LC-MS; assay type: physicochemical; details: NAC in DMSO, 24 h at 37°C
[4] = test system: SUM-149 cells; assay: ApoTox-Glo Triplex assay, SUM-149; assay type: cell-based, human; details: SUM-149, 24 h
Experimental: Cells (9.5 × 10^4/well in 75 μL of fresh medium) were dispensed in 96-well black flat bottom (8807BC, Corning) plates. The cells were incubated for 12 h at 37°C and then treated with compounds (25 μL) for 24 h. DMSO was used as a negative control, and staurosporine was used as the positive control. […] Then, the Caspase-Glo® 3/7 Reagent was added; plates were mixed briefly by orbital shaking (300-500 rpm for ∼30 s), followed by an additional 30 min incubation at RT. Then luminescence, which correlates with caspase 3/7 activation, was recorded with a plate reader to […] apoptosis induction.

[5] = test system: AKT isoforms, BCL-XL, Cyclin D1, c-Myc, PARP in SUM-149 cells; assay: Immunoblots of signaling proteins; assay type: cell-based, human
Text: Breast cancer cells treated with vehicle or EP were lysed, and equal total protein was resolved via SDS-PAGE and immunoblotted with indicated antibodies (Cell Signaling Technologies, Abcam, Sigma) as described previously ([Castillo-Pichardo et al., 2009]; [Martinez-Montemayor et al., 2011]; [Suarez-Arroyo et al., 2016]).

[6] = test system: SUM-149 cells; assay: Matrigel invasion assay (Transwell); assay type: cell-based, human; details: 72 h
Experimental: Cell migration and invasion were measured by using Corning® FluoroBlok^TM Cell Culture Inserts and performing BD BioCoat Matrigel invasion assays (BD Biosciences, San José, CA, United States) as described in [Martinez-Montemayor et al. (2011)] and [Suarez-Arroyo et al. (2016)].

CC(C)[C@@H](C)/C=C/[C@@H](C)[C@H]1CC[C@@H]2[C@]1(C)CC[C@H]1[C@]23C=C[C@]2(C[C@@H](O)CC[C@]12C)OO3 [EP, ergosterol peroxide]
ROS formation (fold) [1]: twofold | cytotoxicity in MCF10A non-cancerous mammary epithelial cells [2]: did not induce cytotoxicity | EC50 ([2]; Homo sapiens, MCF-10A, PI staining, 72-h treatment): > 100 µM | reaction of the endoperoxide motif with NAC [3]: no observable olefin migration or opening of the endoperoxide was detected | caspase 3/7 activity [4]: increase caspase 3/7 activity | viability (GF-AFC) [4]: decrease viability | AKT3 levels ([5]; SUM-149): not affecting AKT3 levels | p-AKT2 ([5]; SUM-149): without affecting p-AKT2 | PARP cleavage ([5]; SUM-149, 30 μM, 24 h): induces PARP cleavage | total PARP levels ([5]; SUM-149, 30 μM, 24 h): significantly reduces total PARP levels | AKT2 levels ([5]; SUM-149, 72 h): decreases | expression of BCL-XL ([5]; SUM-149, 72 h): significantly reduces | expression of Cyclin D1 ([5]; SUM-149, 72 h): significantly reduces | expression of c-Myc ([5]; SUM-149, 72 h): significantly reduces | expression of p-AKT1 (Ser 473) ([5]; SUM-149, 72 h): significantly decreases | total AKT1 levels ([5]; SUM-149, 72 h): decreases total AKT1 | invading cells ([6]; 10 μM): significant reduction | decrease in invasion ([6]; 15 μM): 43%
